Among the test systems are HCT-15 colon; COLO 205 colon; U251 CNS; NCI-H460 lung; HL-60(TB) leukemia; LOX IMVI melanoma; MALME-3M melanoma; SNB-19 CNS; HS 578T breast.
Assay in all cases: NCI-60 cell line screen, 48 h

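Assay format: 96-well plates, 48-hour exposure. Abbreviation: GI50, concentration required for 50% inhibition of growth. TGI marks complete inhibition of growth.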

Take `CC(=O)c1sc(Nc2nnc(-c3ccc(-c4nnc(Nc5nc(C)c(C(C)=O)s5)o4)cc3)o2)nc1C`: the TGI in the experiment with HCT-15 colon, with COLO 205 colon, in the experiment on U251 CNS, in the experiment on NCI-H460 lung, in the experiment with HL-60(TB) leukemia and with LOX IMVI melanoma was greater than 100 µM in each case. The TGI in the experiment on MALME-3M melanoma and in the experiment on SNB-19 CNS was greater than 100 µM each time.

`CCC[CH2][Sn]([Cl])([CH2]CCC)[CH2]CCC`: the GI50 with HCT-15 colon was 0.1 µM; with COLO 205 colon, 0.134 µM; with U251 CNS, 0.113 µM; with NCI-H460 lung it was 0.13 µM; with HL-60(TB) leukemia, 0.121 µM; in the experiment on LOX IMVI melanoma, 0.109 µM. Besides, the GI50 in the experiment on MALME-3M melanoma was 0.123 µM; in the experiment with SNB-19 CNS it was 0.174 µM. For the same compound, the TGI in the experiment with HCT-15 colon came out at 0.242 µM; with COLO 205 colon, 0.278 µM; in the experiment with U251 CNS, 0.236 µM; in the experiment on NCI-H460 lung it was 0.298 µM; in the experiment on HL-60(TB) leukemia it was 0.351 µM; with LOX IMVI melanoma, 0.234 µM. The values for the TGI with MALME-3M melanoma and in the experiment on SNB-19 CNS were 0.265 µM and 0.346 µM, respectively.

As for `Cc1nn(-c2ccc(Cl)cc2)c2nc3c(nc12)C(=O)c1ccccc1-3`, the GI50 in the experiment on HCT-15 colon, with COLO 205 colon, in the experiment with U251 CNS, in the experiment with HL-60(TB) leukemia, in the experiment on LOX IMVI melanoma and with MALME-3M melanoma was greater than 100 µM in each case. The results for the GI50 in the experiment with HS 578T breast and in the experiment with SNB-19 CNS were 15.7 µM and greater than 100 µM, respectively. Also, the TGI with HCT-15 colon, in the experiment on COLO 205 colon, with U251 CNS, in the experiment on HL-60(TB) leukemia, in the experiment with LOX IMVI melanoma and in the experiment with MALME-3M melanoma was greater than 100 µM in each case. The TGI with HS 578T breast and in the experiment with SNB-19 CNS was greater than 100 µM each time.

For `N#CC(C(=O)C(=O)C(C#N)c1ccc(Br)cc1)c1ccc(Br)cc1` (stereo unspecified), the TGI worked out at 26.1 µM in the experiment on HCT-15 colon; 31.4 µM in the experiment with COLO 205 colon; 23.8 µM in the experiment on U251 CNS; 30.5 µM in the experiment with NCI-H460 lung; 20.6 µM in the experiment with HL-60(TB) leukemia; 23.6 µM in the experiment with LOX IMVI melanoma. The TGI was 27.7 µM in the experiment with MALME-3M melanoma and 30.7 µM in the experiment on SNB-19 CNS.

Consider `Cc1ccc(/C=C/C(=O)c2sc(-c3nc(C)c(C(=O)/C=C/c4ccc(C)cc4)s3)nc2C)cc1`, for which the TGI in the experiment on HCT-15 colon, with COLO 205 colon, with U251 CNS, in the experiment on NCI-H460 lung, with HL-60(TB) leukemia and in the experiment with LOX IMVI melanoma was greater than 100 µM in each case. Moreover, in the experiment on MALME-3M melanoma, the TGI is greater than 100 µM.

Take `OCC1OC(c2nc(C3=NCCCN3)cs2)C(O)C1O` (stereo unspecified): the TGI in the experiment with HCT-15 colon, with COLO 205 colon, in the experiment on U251 CNS, in the experiment on NCI-H460 lung, in the experiment on HL-60(TB) leukemia and in the experiment on LOX IMVI melanoma was greater than 100 µM throughout. The TGI in the experiment on MALME-3M melanoma and in the experiment on SNB-19 CNS was greater than 100 µM throughout.

For the compound `CCOc1ccc(NC(=O)CC#N)cc1`, the TGI in the experiment with COLO 205 colon, in the experiment on U251 CNS, with NCI-H460 lung, in the experiment with HL-60(TB) leukemia, in the experiment with LOX IMVI melanoma and in the experiment with MALME-3M melanoma was greater than 100 µM in each case. This compound gave a TGI in the experiment on SNB-19 CNS greater than 100 µM.

As to `CCOC(=O)C(=[N+]=[N-])[Si](C)(C)C`, the TGI is greater than 100 µM in the experiment on HCT-15 colon; greater than 100 µM in the experiment on COLO 205 colon; 69.2 µM in the experiment on U251 CNS; greater than 100 µM in the experiment with NCI-H460 lung; greater than 100 µM in the experiment on LOX IMVI melanoma; greater than 100 µM in the experiment on MALME-3M melanoma. This compound also returned a TGI in the experiment on SNB-19 CNS greater than 100 µM.

In the case of `CC(=O)Oc1c2c(c(O)c3ccccc13)C(n1cnc3c(ncn3C3OC(CO)C4OC(C)(C)OC43)c1=N)CCC2` (stereo unspecified), the TGI with HCT-15 colon was found to be 29.3 µM; with COLO 205 colon, 37.6 µM; with U251 CNS it was 33.3 µM; with NCI-H460 lung, 62.4 µM; in the experiment on HL-60(TB) leukemia, 22.3 µM; in the experiment on LOX IMVI melanoma, 21 µM. For the same compound, the TGI with MALME-3M melanoma was found to be 23.4 µM; in the experiment with SNB-19 CNS it was 30.3 µM.

As to `O=C(CCc1n[nH]c(=S)o1)Nc1ccccc1C(F)(F)F`, the TGI in the experiment with HCT-15 colon was 38.8 µM; in the experiment with COLO 205 colon, greater than 100 µM; in the experiment on U251 CNS, greater than 100 µM; in the experiment with NCI-H460 lung, greater than 100 µM; in the experiment with HL-60(TB) leukemia it was greater than 100 µM; with MALME-3M melanoma it was greater than 100 µM. The TGI with SNB-19 CNS was greater than 100 µM.

In the case of `O=C(Nc1nc(=S)c2c(ncn2CCOC(=O)c2ccccc2)[nH]1)c1ccccc1`, the TGI in the experiment with HCT-15 colon, in the experiment with COLO 205 colon, with U251 CNS, in the experiment with NCI-H460 lung, in the experiment on HL-60(TB) leukemia and with LOX IMVI melanoma was greater than 100 µM in each case. Further, the TGI in the experiment on MALME-3M melanoma and in the experiment with SNB-19 CNS was greater than 100 µM each time.

For `O=C(/C=C/c1cccc2ccccc12)c1ccccc1Cl`, the TGI in the experiment on HCT-15 colon is 24.3 µM; in the experiment on COLO 205 colon, greater than 100 µM; in the experiment on U251 CNS, 23.7 µM; in the experiment with NCI-H460 lung, 29.2 µM; in the experiment on HL-60(TB) leukemia, 19.4 µM; in the experiment on MALME-3M melanoma, 30.2 µM. This compound also displayed a TGI in the experiment with SNB-19 CNS of 27 µM.

In the case of `Cc1cc(N(CCC#N)CCC#N)ccc1N=Nc1ccc(C(=O)O)cc1`, the TGI in the experiment with HCT-15 colon, in the experiment on COLO 205 colon, in the experiment on U251 CNS, in the experiment with LOX IMVI melanoma and with MALME-3M melanoma was greater than 100 µM each time.

`CN(C)CC1CCCC/C1=N/OC(=O)c1ccc(Cl)cc1` (stereo unspecified): the TGI in the experiment with HCT-15 colon, in the experiment with COLO 205 colon, with U251 CNS, with NCI-H460 lung, in the experiment on HL-60(TB) leukemia and in the experiment with LOX IMVI melanoma was greater than 100 µM each time. The TGI in the experiment on MALME-3M melanoma was greater than 100 µM.

For the compound `Cc1[nH]c2ccccc2c1C(=O)/C=C/c1ccccc1O`, the TGI with COLO 205 colon, in the experiment with U251 CNS, with NCI-H460 lung, with HL-60(TB) leukemia, in the experiment with LOX IMVI melanoma and in the experiment on MALME-3M melanoma was greater than 100 µM throughout. Moreover, the TGI in the experiment on SNB-19 CNS was greater than 100 µM.

Values taken from PubChem BioAssay (NCI).
